Laboratory results: patent US11897880B2, “7,8-dihydrobenzo[e]pyrido[3,4-c]azocine-2,5(3H,6H)-dione derivatives useful as a factor XIa inhibitors” (Janssen Pharmaceutica NV, priority 2021, dated 2024)
Like-named read-outs stand apart in the source and are kept apart here.

Legend:
[1] = target: Factor XIa (Homo sapiens, UniProt P03951); assay: Factor XIa inhibition assay utilizing a fluorophore-quencher pair peptide substrate (FLINT); format: biochemical; settings: for IC50: read-out: FXIa IC50; for Ki: read-out: FXIa Ki
Factor XIa, sequence (P03951 388-625 limits assumed): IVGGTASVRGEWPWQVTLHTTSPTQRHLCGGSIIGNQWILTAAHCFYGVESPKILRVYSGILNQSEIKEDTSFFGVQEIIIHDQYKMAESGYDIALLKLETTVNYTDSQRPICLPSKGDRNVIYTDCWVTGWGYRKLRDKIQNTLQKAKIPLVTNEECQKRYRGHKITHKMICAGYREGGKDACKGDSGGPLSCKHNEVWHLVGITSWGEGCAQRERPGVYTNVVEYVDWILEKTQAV
Factor XIa, sequence (P03951 19-387 partner limits assumed): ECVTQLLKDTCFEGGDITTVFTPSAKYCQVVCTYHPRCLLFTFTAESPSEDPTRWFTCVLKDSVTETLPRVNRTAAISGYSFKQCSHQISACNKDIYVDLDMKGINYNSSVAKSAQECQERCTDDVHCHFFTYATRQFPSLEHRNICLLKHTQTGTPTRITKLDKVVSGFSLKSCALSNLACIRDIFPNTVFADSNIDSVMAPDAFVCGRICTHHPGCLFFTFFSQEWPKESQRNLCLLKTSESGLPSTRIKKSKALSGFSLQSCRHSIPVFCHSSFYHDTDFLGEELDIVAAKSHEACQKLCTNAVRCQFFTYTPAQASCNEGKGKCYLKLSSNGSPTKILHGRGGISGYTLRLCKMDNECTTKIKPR
Summary of the method: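 Enzyme preincubated 30 min at room temperature with compound (11-point 3-fold dilution, top 100 nM, 2% DMSO), then 15 μM 5Fam-KLTRAETV-K5Tamra substrate added. Buffer: 50 mM Tris pH 7.5, 100 mM NaCl, 5 mM CaCl2, 0.1 mg/mL BSA, 0.03% CHAPS. Fluorescence (485/520 nm) read kinetically over 30 min; IC50 from 4-parameter logistic fit.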

[2] = target: human plasma kallikrein (Homo sapiens, UniProt P03952); assay: Kallikrein inhibition assay utilizing a quenched AMC peptide substrate (FLINT); format: biochemical; settings: 30 min preincubation, 50 μM Z-Gly-Pro-Arg-AMC, 2 nM kallikrein
human plasma kallikrein, sequence (P03952 391-638 limits assumed): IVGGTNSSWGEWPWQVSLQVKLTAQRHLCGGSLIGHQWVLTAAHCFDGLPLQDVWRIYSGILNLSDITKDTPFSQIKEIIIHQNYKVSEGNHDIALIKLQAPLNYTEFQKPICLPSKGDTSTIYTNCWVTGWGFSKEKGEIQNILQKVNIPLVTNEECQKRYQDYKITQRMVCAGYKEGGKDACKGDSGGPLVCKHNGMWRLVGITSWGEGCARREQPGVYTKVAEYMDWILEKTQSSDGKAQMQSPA
human plasma kallikrein, sequence (P03952 20-390 partner limits assumed): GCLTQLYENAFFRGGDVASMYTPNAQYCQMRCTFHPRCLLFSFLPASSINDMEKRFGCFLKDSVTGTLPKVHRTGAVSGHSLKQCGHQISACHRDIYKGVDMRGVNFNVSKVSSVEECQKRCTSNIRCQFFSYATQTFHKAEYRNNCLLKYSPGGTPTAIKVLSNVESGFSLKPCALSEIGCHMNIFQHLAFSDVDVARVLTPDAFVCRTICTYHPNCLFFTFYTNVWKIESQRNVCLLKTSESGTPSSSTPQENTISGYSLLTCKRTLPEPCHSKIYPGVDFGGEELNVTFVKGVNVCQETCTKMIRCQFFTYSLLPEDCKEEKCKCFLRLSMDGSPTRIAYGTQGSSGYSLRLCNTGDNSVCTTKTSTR
Summary of the method: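 Human plasma kallikrein (2 nM final) was preincubated 30 min at room temperature with compound (11-point 3-fold dilution, top 1 μM, 2% DMSO) in pH 7.5 Tris buffer with CaCl2, BSA and CHAPS. Z-Gly-Pro-Arg-AMC (50 μM final) fluorescence was read at 340/440 nm every 5 min for 30 min. IC50 came from a 4-parameter logistic fit.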

[3] = 30 min preincubation, 5Fam-KLTRAETV-K5Tamra substrate 15 μM final, kinetic reads
[4] = cells that print μM themselves in the nM column, same assay conditions
[5] = cells that print μM themselves in the nM column

IC50 [1, 3]	Ki [1]	IC50 [2]	IC50 [1, 4]	Ki [1, 5]	Structure (SMILES)
0.183 µM	0.0917 µM	> 10000 nM			O=C1NC2(CC2)Cc2ccc(Cl)c(F)c2-c2cc(=O)n(C(CC3CC3)c3ncc(-c4ccncc4)[nH]3)cc21 (single isomer, unassigned) [Compound 66, (R*)-11-chloro-3-(2-cyclopropyl-1-(5-(pyridin-4-yl)-1H-imidazol-2-yl)ethyl)-12-fluoro-3H-spiro[benzo[e]pyrido[3,4-c]azocine-7,1′-cyclopropane]-2,5(6H,8H)-dione]
	0.535 µM	> 10000 nM	1.07 µM		O=C1NC2(CC2)Cc2ccc(Cl)c(F)c2-c2cc(=O)n3c(c21)CC[C@H]3c1ncc(-c2ccc3[nH]ccc3c2)[nH]1 (single isomer, unassigned) [Compound 16, (S*)-12-(5-(1H-indol-5-yl)-1H-imidazol-2-yl)-7-chloro-8-fluoro-13,14-dihydro-2H-spiro[benzo[5,6]azocino[4,3-g]indolizine-3,1′-cyclopropane]-1,10(4H,12H)-dione]
		> 10000 nM	5.15 µM	2.58 µM	Cn1nncc1-c1cnc([C@H]2CCc3c4c(cc(=O)n32)-c2c(ccc(Cl)c2F)CCNC4=O)[nH]1 (stereo in doubt) [Compound 45, (R*)-7-chloro-8-fluoro-12-(5-(1-methyl-1H-1,2,3-triazol-5-yl)-1H-imidazol-2-yl)-3,4,13,14-tetrahydrobenzo[5,6]azocino[4,3-g]indolizine-1,10(2H,12H)-dione]
0.0337 µM	0.0169 µM	6210 nM			Nc1ccc(-c2cnc([C@H]3CCc4c5c(cc(=O)n43)-c3c(ccc(Cl)c3F)CC3(CCCC3)NC5=O)[nH]2)c(F)n1 (stereo in doubt) [Compound 34, (R*)-12-(5-(6-amino-2-fluoropyridin-3-yl)-1H-imidazol-2-yl)-7-chloro-8-fluoro-13,14-dihydro-2H-spiro[benzo[5,6]azocino[4,3-g]indolizine-3,1′-cyclopentane]-1,10(4H,12H)-dione]
		> 10000 nM	9.15 µM	4.57 µM	Nc1ccc(-c2cnc([C@@H]3CCc4c5c(cc(=O)n43)-c3c(ccc(Cl)c3F)CCNC5=O)[nH]2)c(F)n1 (stereo in doubt) [Compound 46, (S*)-12-(5-(6-amino-2-fluoropyridin-3-yl)-1H-imidazol-2-yl)-7-chloro-8-fluoro-3,4,13,14-tetrahydrobenzo[5,6]azocino[4,3-g]indolizine-1,10(2H,12H)-dione]
0.102 µM	0.0508 µM	5720 nM			O=C1NC2(CC2)Cc2ccc(Cl)c(F)c2-c2cc(=O)n(C(CC3CC3)c3ncc(-c4ccc(F)cc4)[nH]3)cc21 (single isomer, unassigned) [Compound 65, (S*)-11-chloro-3-(2-cyclopropyl-1-(5-(4-fluorophenyl)-1H-imidazol-2-yl)ethyl)-12-fluoro-3H-spiro[benzo[e]pyrido[3,4-c]azocine-7,1′-cyclopropane]-2,5(6H,8H)-dione]
0.237 µM	0.118 µM	> 10000 nM			Nc1ccc(-c2cnc([C@H]3CCc4c5c(cc(=O)n43)-c3c(ccc(Cl)c3F)CC3(CCC3)NC5=O)[nH]2)c(F)n1 (stereo in doubt) [Compound 33, (R*)-12-(5-(6-amino-2-fluoropyridin-3-yl)-1H-imidazol-2-yl)-7-chloro-8-fluoro-13,14-dihydro-2H-spiro[benzo[5,6]azocino[4,3-g]indolizine-3,1′-cyclobutane]-1,10(4H,12H)-dione]
		> 10000 nM	> 10 µM	> 5 µM	Cn1nncc1-c1cnc([C@H]2CCc3c4c(cc(=O)n32)-c2c(ccc(Cl)c2F)CC2(CC2)NC4=O)[nH]1 (stereo in doubt) [Compound 43, (R*)-7-chloro-8-fluoro-12-(5-(1-methyl-1H-1,2,3-triazol-5-yl)-1H-imidazol-2-yl)-13,14-dihydro-2H-spiro[benzo[5,6]azocino[4,3-g]indolizine-3,1′-cyclopropane]-1,10(4H,12H)-dione]
		> 10000 nM	9.69 µM	4.84 µM	O=C1NC2(CC2)Cc2ccc(Cl)c(F)c2-c2cc(=O)n(C(CC3CC3)c3ncc(-c4cc[n+]([O-])cc4)[nH]3)cc21 (single isomer, unassigned) [Compound 57, (R*)-4-(2-(1-(11-chloro-12-fluoro-2,5-dioxo-2,5,6,8-tetrahydro-3H-spiro[benzo[e]pyrido[3,4-c]azocine-7,1′-cyclopropan]-3-yl)-2-cyclopropylethyl)-1H-imidazol-5-yl)pyridine 1-oxide]
0.0006 µM	0.0003 µM	60 nM			O=C1NC2(CC2)Cc2ccc(Cl)c(F)c2-c2cc(=O)n3c(c21)CC[C@@H]3c1ncc(-c2ccc3[nH]cnc3c2)[nH]1 (stereo in doubt) [Compound 6, (R*)-12-(5-(1H-benzo[d]imidazol-5-yl)-1H-imidazol-2-yl)-7-chloro-8-fluoro-13,14-dihydro-2H-spiro[benzo[5,6]azocino[4,3-g]indolizine-3,1′-cyclopropane]-1,10(4H,12H)-dione]
0.003 µM	0.0015 µM	470 nM			Nc1ccc(-c2cnc(C3CCc4c5c(cc(=O)n43)-c3cc(Cl)ccc3CC3(CC3)NC5=O)[nH]2)c(F)n1 (stereo not drawn) [Compound 2, 12-(5-(6-amino-2-fluoropyridin-3-yl)-1H-imidazol-2-yl)-7-chloro-13,14-dihydro-2H-spiro[benzo[5,6]azocino[4,3-g]indolizine-3,1′-cyclopropane]-1,10(4H,12H)-dione]
	0.926 µM	> 10000 nM	1.85 µM		Nc1ccc(-c2cnc([C@H]3CCc4c5c(cc(=O)n43)-c3c(ccc(Cl)c3F)CC3(CC3)N(CCO)C5=O)[nH]2)c(F)n1 (single isomer, unassigned) [Compound 10, (R*)-12-(5-(6-amino-2-fluoropyridin-3-yl)-1H-imidazol-2-yl)-7-chloro-8-fluoro-2-(2-hydroxyethyl)-13,14-dihydro-2H-spiro[benzo[5,6]azocino[4,3-g]indolizine-3,1′-cyclopropane]-1,10(4H,12H)-dione]
0.0008 µM	0.0004 µM	350 nM			CC1(C)Cc2ccc(Cl)c(F)c2-c2cc(=O)n3c(c2C(=O)N1)CC[C@H]3c1ncc(-c2ccc(N)nc2F)[nH]1 (single isomer, unassigned) [Compound 29, (S*)-12-(5-(6-amino-2-fluoropyridin-3-yl)-1H-imidazol-2-yl)-7-chloro-8-fluoro-3,3-dimethyl-3,4,13,14-tetrahydrobenzo[5,6]azocino[4,3-g]indolizine-1,10(2H,12H)-dione]
0.0023 µM	0.0011 µM	420 nM			O=C1NC2(CC2)Cc2ccc(Cl)c(F)c2-c2cc(=O)n3c(c21)CC[C@H]3c1ncc(-c2ccn3ccnc3c2)[nH]1 (stereo in doubt) [Compound 7, (S*)-7-chloro-8-fluoro-12-(5-(imidazo[1,2-a]pyridin-7-yl)-1H-imidazol-2-yl)-13,14-dihydro-2H-spiro[benzo[5,6]azocino[4,3-g]indolizine-3,1′-cyclopropane]-1,10(4H,12H)-dione]
